Assay results reported in US11118200B2, “Method for preparing amines from aldehydes and ketones by biocatalysis” (COMMISSARIAT A L'ENERGIE ATOMIQUE ET AUX ENERGIES …, priority 2017, dated 2021).
Marks after values point to notes of the source that are not given here. Values belong to the compound of their own block, whether it stands above or below them.

Columns and labels:
[1] = system: enzyme of SEQ ID NO:4; assay: Screening of carbonyl-containing compounds with ammonia as amine source (specific activity, absorbance at 340 nm); assay type: biochemical, Aminomonas paucivorans DSM 12260; parameters: key to Detection of the expected compound, SEQ ID NO: 4: d: detected activity; nd: not detected activity; conditions: for Specific activity, SEQ ID NO: 4: 0.2 mM NADH (best of NADH/NADPH), 10 mM of carbonyl-containing compound; for Specific activity, SEQ ID NO: 4 / Detection of the expected compound, SEQ ID NO: 4: ammonia as amine source; for Detection of the expected compound, SEQ ID NO: 4: pH 9.5, 25° C.
Protocol: (§1) All the reactions were conducted at 25° C. in spectrophotometric cell (10 mm light path). To a mixture of ammonium formate buffer (2 M NH4HCO2/NH4OH, pH 9.5), NADH or NADPH (0.2 mM) and an appropriate amount of purified enzyme was added. Carbonyl-containing compound (5 or 10 mM) is then added to initiate the reaction (reaction final volume 100 μL). The initial slope measured at 340 nm determined the specific activity of the enzyme according to Beer-Lambert's law and the molar absorptivity of β-NADH (ϵ=6298 M^−1 cm^−1).

[2] = system: enzyme of SEQ ID NO:1; assay: as above; assay type: biochemical, Mycobacterium smegmatis; conditions: for Specific activity, SEQ ID NO: 1: 10 mM of carbonyl-containing compound, ammonia as amine source
Protocol: (§2) All the reactions were conducted at 25° C. in spectrophotometric cell (10 mm light path). To a mixture of ammonium formate buffer (2 M NH4HCO2/NH4OH, pH 9.5), NADH or NADPH (0.2 mM) and an appropriate amount of purified enzyme was added.

[3] = system: enzyme of SEQ ID NO:3; assay: as above; assay type: biochemical, Microbacterium sp. MA1; conditions: for Specific activity, SEQ ID NO: 3: 10 mM of carbonyl-containing compound, ammonia as amine source
Protocol: as §2

[4] = system: enzyme of SEQ ID NO:2; assay: as above; assay type: biochemical, Cystobacter fuscus DSM 2262; conditions: for Specific activity, SEQ ID NO: 2: 10 mM of carbonyl-containing compound, ammonia as amine source
Protocol: as §2

[5] = system: enzyme of SEQ ID NO:1; assay: Reduction of cyclic imine substrates; assay type: biochemical, Mycobacterium smegmatis
[6] = system: enzyme of SEQ ID NO:2; assay: Reduction of cyclic imine substrates; assay type: biochemical, Cystobacter fuscus DSM 2262
[7] = system: enzyme of SEQ ID NO:4; assay: Reduction of cyclic imine substrates; assay type: biochemical, Aminomonas paucivorans DSM 12260
[8] = system: enzyme of SEQ ID NO:3; assay: Reduction of cyclic imine substrates; assay type: biochemical, Microbacterium sp. MA1
[9] = system: Bbad-AmDH; conditions: as described in Pushpanath et al.; cited from earlier work
[10] = system: enzyme of SEQ ID NO:5; assay: Screening of carbonyl-containing compounds with methylamine as amine source; assay type: biochemical, Mycobacterium vaccae ATCC 25954; conditions: preliminary
Protocol: as §1, with “of TRIS.HCl” for “of ammonium formate”, “buffer (50 mM,” for “buffer (2 M NH4HCO2/NH4OH,”, “NADH and” for “NADH or”, “NADPH (0.1 mM each), methylamine (500” for “NADPH (0.2”, “(5” for “(5 or 10”

[11] = system: enzyme of SEQ ID NO:3; assay: as above; assay type: biochemical, Microbacterium sp. MA1; conditions: preliminary
Protocol: as §1, with “of TRIS.HCl” for “of ammonium formate”, “buffer (50 mM,” for “buffer (2 M NH4HCO2/NH4OH,”, “NADH and” for “NADH or”, “NADPH (0.1 mM each), methylamine (500” for “NADPH (0.2”, “(5” for “(5 or 10”

[12] = target: PheDH-AmDH K77S/N276L (Pseudobacillus badius, UniProt Q59224, K78S/N277L); conditions: prior-art engineered enzyme; cited from earlier work
Sequence of PheDH-AmDH K77S/N276L (Q59224 whole entry K78S/N277L): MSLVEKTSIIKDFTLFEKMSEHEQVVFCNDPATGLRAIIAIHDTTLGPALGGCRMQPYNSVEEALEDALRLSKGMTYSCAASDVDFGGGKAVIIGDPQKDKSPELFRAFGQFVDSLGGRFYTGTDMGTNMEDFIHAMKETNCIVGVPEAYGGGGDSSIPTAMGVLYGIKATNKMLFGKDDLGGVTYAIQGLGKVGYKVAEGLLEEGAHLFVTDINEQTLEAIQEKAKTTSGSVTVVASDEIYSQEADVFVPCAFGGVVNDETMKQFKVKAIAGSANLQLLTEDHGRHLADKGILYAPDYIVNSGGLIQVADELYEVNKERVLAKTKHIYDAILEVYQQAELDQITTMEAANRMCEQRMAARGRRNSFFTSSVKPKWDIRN

[13] = system: Cal-AmDH; conditions: as described in Pushpanath et al.; cited from earlier work
[14] = system: enzyme of SEQ ID NO:1; assay: Screening of carbonyl-containing compounds with methylamine as amine source; assay type: biochemical, Mycobacterium smegmatis; conditions: preliminary
Protocol: as §1, with “of TRIS.HCl” for “of ammonium formate”, “buffer (50 mM,” for “buffer (2 M NH4HCO2/NH4OH,”, “NADH and” for “NADH or”, “NADPH (0.1 mM each), methylamine (500” for “NADPH (0.2”, “(5” for “(5 or 10”

[15] = system: enzyme of SEQ ID NO:6; assay: Screening of carbonyl-containing compounds with ammonia as amine source (specific activity, absorbance at 340 nm); assay type: biochemical, Mycobacterium sp. GA-2829; conditions: mixture NADH/NADPH (0.1 mM each), 10 mM of carbonyl-containing compound
Protocol: as §1, with “To a mixture of ammonium formate buffer (2 M NH4HCO2/NH4OH, pH 9.5), NADH or NADPH (0.2 mM) and an appropriate amount of purified enzyme was added.” left out

[16] = system: enzyme of SEQ ID NO:5; assay: as above; assay type: biochemical, Mycobacterium vaccae ATCC 25954; conditions: mixture NADH/NADPH (0.1 mM each), 5 mM of carbonyl-containing compound
Protocol: as §1, with “To a mixture of ammonium formate buffer (2 M NH4HCO2/NH4OH, pH 9.5), NADH or NADPH (0.2 mM) and an appropriate amount of purified enzyme was added.” left out

[17] = 0.2 mM NADPH (best of NADH/NADPH)
[18] = methylamine (500 mM) as amine source, NADH/NADPH (0.1 mM each), carbonyl-containing compound 5 mM
[19] = 0.2 mM NADH (best of NADH/NADPH)
[20] = 0.2 mM NADH (best of NADH/NADPH), listed as drawing 130
[21] = 0.2 mM NADPH (best of NADH/NADPH), listed as drawing 134

Compound: CC1CCCC1=O (stereo not shown)
Specific activity, SEQ ID NO: 1 [2, 17]: 65.2^b mU.mg^-1 | Specific activity, SEQ ID NO: 3 [3, 17]: 90.3^b mU.mg^-1 | Specific activity, SEQ ID NO: 2 [4, 17]: 8.8^b mU.mg^-1

Compound: CC(=O)C1CCCCC1
Specific activity, SEQ ID NO: 1 [2, 17]: 2.1^b mU.mg^-1 | Specific activity, SEQ ID NO: 3 [3, 17]: 64.0^b mU.mg^-1

Compound: O=C1CCCCC1 [cyclohexanone]
specific activity of Bbad-AmDH [9]: 11.3 mU·mg^−1 | Specific activity, SEQ ID NO: 5 [10, 18]: 12.6 mU.mg-^1 | activity of enzyme of SEQ ID NO:5 on the substrate with methylamine (in words) ([10]; methylamine as amine source): active | Specific activity, SEQ ID NO: 1 [2, 19]: 196.2 mU.mg^-1 | Specific activity, SEQ ID NO: 1 [2, 20]: 196.2^a mU.mg^-1 | Specific activity, SEQ ID NO: 3 [3, 19]: 614.5 mU.mg^-1 | Specific activity, SEQ ID NO: 3 [3, 20]: 614.5^a mU.mg^-1 | Specific activity, SEQ ID NO: 3 [11, 18]: 90.4 mU.mg-^1 | activity of enzyme of SEQ ID NO:3 on the substrate with methylamine (in words) ([11]; methylamine as amine source): active | specific activity of PheDH-AmDH K77S/N276L [12]: 27 mU·mg^−1 | specific activity of Cal-AmDH [13]: 12.7 mU·mg^−1 | Specific activity, SEQ ID NO: 2 [4, 19]: 135.9 mU.mg^-1 | Specific activity, SEQ ID NO: 2 [4, 20]: 135.9^a mU.mg^-1 | Specific activity, SEQ ID NO: 1 [14, 18]: 10.1 mU.mg-^1 | activity of enzyme of SEQ ID NO:1 on the substrate with methylamine (in words) ([14]; methylamine as amine source): active

Compound: CC1CCCCC1=O (racemic) [2-methylcyclohexanone]
Specific activity, SEQ ID NO: 1 [2, 17]: 175.3 mU.mg^-1 | Specific activity, SEQ ID NO: 1 ([2]; 0.2 mM NADPH (best of NADH/NADPH), listed as drawing 132): 175.3^b mU.mg^-1 | Specific activity, SEQ ID NO: 3 [3, 19]: 337.0 mU.mg^-1 | Specific activity, SEQ ID NO: 3 ([3]; 0.2 mM NADH (best of NADH/NADPH), listed as drawing 132): 337.0a mU.mg^-1 | specific activity of PheDH-AmDH K77S/N276L [12]: 19.3 mU·mg^−1 | Specific activity, SEQ ID NO: 2 [4, 17]: 14.8^b mU.mg^-1

Compound: CC1CCCC(=O)C1 (racemic) [3-methylcyclohexanone]
Specific activity, SEQ ID NO: 1 [2, 17]: 160.9 mU.mg^-1 | Specific activity, SEQ ID NO: 1 [2, 21]: 160.9^b mU.mg^-1 | Specific activity, SEQ ID NO: 3 [3, 17]: 206.5 mU.mg^-1 | Specific activity, SEQ ID NO: 3 [3, 21]: 206.5^b mU.mg^-1 | specific activity of PheDH-AmDH K77S/N276L [12]: 41.1 mU·mg^−1 | Specific activity, SEQ ID NO: 2 [4, 17]: 37.0^b mU.mg^-1

Compound: O=C1CCCCC1 [drawing 168]
Specific activity, SEQ ID NO: 6 [15]: 13.9 mU.mg^-1 | Specific activity, SEQ ID NO: 5 [16]: 75.6 mU.mg^-1

Compound: O=C1CCCCC1 [drawing 120]
Specific activity, SEQ ID NO: 4 [1]: 9.82^a mU.mg^-1 | Detection of the expected compound, SEQ ID NO: 4 [1]: d

The remaining lines, values ahead:

activity of enzyme of SEQ ID NO:4 towards the substrate (in words) ([1]; reductive amination): inactive | activity of enzyme of SEQ ID NO:1 towards the substrate (in words) ([2]; reductive amination): inactive | activity of enzyme of SEQ ID NO:3 towards the substrate (in words) ([3]; reductive amination): inactive | activity of enzyme of SEQ ID NO:2 towards the substrate (in words) ([4]; reductive amination): inactive
Compound: CC(=O)CC(N)C(=O)O (stereo not shown) [2-amino-4-oxopentanoic acid]

reduction of cyclic imine by enzyme of SEQ ID NO:1 (in words) [5]: able to catalyze | reduction of cyclic imine by enzyme of SEQ ID NO:2 (in words) [6]: able to catalyze | reduction of cyclic imine by enzyme of SEQ ID NO:4 (in words) [7]: able to catalyze | reduction of cyclic imine by enzyme of SEQ ID NO:3 (in words) [8]: able to catalyze
Compound: CC1=NCCC1

Specific activity, SEQ ID NO: 1 [2, 19]: 85.2^a mU.mg^-1 | Specific activity, SEQ ID NO: 3 [3, 17]: 170.1^b mU.mg^-1 | Specific activity, SEQ ID NO: 2 [4, 17]: 20.4^b mU.mg^-1
Compound: CC1CCC(=O)CC1

Specific activity, SEQ ID NO: 4 [1]: 129.6^a mU.mg^-1 | Detection of the expected compound, SEQ ID NO: 4 [1]: d
Compound: CCC(C)C=O (stereo not shown) [drawing 124]

Specific activity, SEQ ID NO: 1 [2, 17]: 48.2^b mU.mg^-1 | Specific activity, SEQ ID NO: 3 [3, 17]: 192.0^b mU.mg^-1 | Specific activity, SEQ ID NO: 2 [4, 17]: 3.6^b mU.mg^-1
Compound: CCC(=O)CC

Specific activity, SEQ ID NO: 1 [2, 17]: 26.8^b mU.mg^-1 | Specific activity, SEQ ID NO: 3 [3, 17]: 57.8^b mU.mg^-1 | Specific activity, SEQ ID NO: 2 [4, 17]: 72.9^b mU.mg^-1
Compound: CCCCC=O [drawing 146]
